Data taken from the OPERA property sets (Mansouri et al. 2018).
Values after ≈ are worked out from the molar mass of the structure shown.

Conditions: 20 °C

Row | Structure (SMILES) | solubility [mM]
1 | NC(=O)N/N=C/[C@H](O)[C@@H](O)[C@H](O)CO | 743 (≈ 154000 µg/mL)
2 | O=C(O)CCCP(=O)(O)O | 3170 (≈ 533000 µg/mL)
3 | O=C1COc2ccccc2N1 | 2.68 (≈ 400 µg/mL)
4 | CC(=O)NCC(=O)Nc1ccccc1 | 27.1 (≈ 5200 µg/mL)
5 | Cc1snnc1C(=O)O | 347 (≈ 50000 µg/mL)
6 | NC1=NC(C(=O)O)CCS1 (stereo not given) | 187 (≈ 30000 µg/mL)
7 | CC(=O)/C(=N/O)c1ccccc1 | 4.29 (≈ 700 µg/mL)
8 | O=C(O)C(Br)=C(Br)I | 95.6 (≈ 34000 µg/mL)
9 | CC1(C)CO1 | 804 (≈ 58000 µg/mL)
10 | N[C@@H](C(=O)O)[C@@H](O)[C@H](O)[C@H](O)CO | 138 (≈ 27000 µg/mL)
11 | CC(=O)Nc1ccc(C)cc1F | 18.2 (≈ 3040 µg/mL)
12 | O=C(O)C=C(Br)Br | 146 (≈ 33500 µg/mL)
13 | OCc1ccc(I)cc1 | 1.79 (≈ 420 µg/mL)
14 | Cn1c(=O)c2n[se]nc2n(C)c1=O | 5.02 (≈ 1230 µg/mL)

Same assay, conditions: 21 °C

Row | Structure (SMILES) | solubility [mM]
15 | O=C(O)CNC(=O)c1ccco1 | 187 (≈ 31700 µg/mL)
16 | Cc1cc(O)c(C(=O)O)cc1Cl | 0.75 (≈ 140 µg/mL)

Same assay, conditions: 22 °C

Row | Structure (SMILES) | solubility [mM]
17 | CCOP(=O)(Cc1ccc(-c2nc3ccccc3s2)cc1)OCC | 0.0996 (≈ 36 µg/mL)
18 | O=C1CCCCCCCCCCCCCCCCCN1 | 1.42 (≈ 400 µg/mL)
19 | O=S1(=O)NCc2ccccc21 | 30.1 (≈ 5100 µg/mL)
20 | O=C1CCCCCCCN1 | 4290 (≈ 606000 µg/mL)

Same assay, conditions: 23 °C

Row | Structure (SMILES) | solubility [mM]
21 | Nc1cc([N+](=O)[O-])ccc1O | 6 (≈ 925 µg/mL)

Same assay, conditions: 25 °C

Row | Structure (SMILES) | solubility [mM]
22 | O=C(O)CC1NC(=O)NC1=O (stereo not given) | 70.5 (≈ 11100 µg/mL)
23 | CCCCCCCCCCNC(=O)c1cccnc1 | 0.838 (≈ 220 µg/mL)
24 | ON=C1CCCCCC1=NO | 37.6 (≈ 5870 µg/mL)
25 | N#CCCN(CCC#N)C(CC(=O)O)C(=O)O (racemic) | 29.3 (≈ 7000 µg/mL)
26 | CCCCCCCCOCC(O)CO (stereo not given) | 12 (≈ 2450 µg/mL)
27 | OCc1cccc(CO)c1 | 585 (≈ 80800 µg/mL)
28 | CC(C)C1CCC(=NO)C(=NO)C1 (stereo not given) | 4.07 (≈ 750 µg/mL)
29 | CCCCCCCCCCCNC(=O)c1cccnc1 | 0.941 (≈ 260 µg/mL)
30 | CCc1c[nH]c(=O)nc1N | 95.6 (≈ 13300 µg/mL)
31 | Cc1ccc(S(=O)(=O)Oc2ccccc2C)cc1 | 0.114 (≈ 30 µg/mL)
32 | CCCCCCCCCCCCCCNC(=O)C(C)O (stereo not given) | 0.105 (≈ 30 µg/mL)
33 | CCCCCOP(=O)(OCC)OCC | 33.4 (≈ 7500 µg/mL)
34 | CCC(CC)COC(=O)NS(N)(=O)=O | 17.8 (≈ 4000 µg/mL)
35 | CNC(=O)N(C)C(=O)CC#N | 1480 (≈ 230000 µg/mL)
36 | CCOC(=S)SC(C)C(=O)O (stereo not given) | 35.6 (≈ 6910 µg/mL)
37 | O=C1CNC(=S)N1c1ccccc1 | 0.572 (≈ 110 µg/mL)
38 | CC(C)C1OC(=O)c2ccccc21 (stereo not given) | 5.54 (≈ 976 µg/mL)
39 | O=C(O)c1ccc2ncccc2c1 | 900 (≈ 156000 µg/mL)
40 | NP(N)(=O)c1ccccc1 | 71.1 (≈ 11100 µg/mL)
41 | CCCCOC(=O)C(C)OC(C)=O (stereo not given) | 176 (≈ 33200 µg/mL)
42 | C#CC#CC=C=CCCO | 12.9 (≈ 1700 µg/mL)
43 | Oc1c(Cl)cc(Cl)cc1Cc1ccccc1 | 0.0229 (≈ 5.8 µg/mL)
44 | CC(=O)c1cc(O)c(O)c(O)c1 | 33.8 (≈ 5680 µg/mL)
45 | CCCCOP(=O)(OCC)OCCCC | 14.3 (≈ 3400 µg/mL)
46 | CCCC(=O)N(C)N=O | 29.2 (≈ 3800 µg/mL)
47 | OCc1ccccc1CO | 1140 (≈ 158000 µg/mL)
48 | Oc1nc2ccccc2nc1O | 1.54 (≈ 250 µg/mL)

Row | Structure (SMILES) | solubility [mM]
49 | CCCCC(=O)Oc1ccc([N+](=O)[O-])cc1 | 0.0403 (≈ 9 µg/mL)
50 | Cc1cc(Cl)cc(Cl)c1O | 9.04 (≈ 1600 µg/mL)
51 | CCC1(c2ccccc2)NC(=O)NC1=O (stereo not given) | 6.76 (≈ 1380 µg/mL)
52 | CCN1CC(=O)N=C1N | 684 (≈ 87000 µg/mL)
53 | C[C@@H](N)[C@@H](O)c1ccccc1 | 132 (≈ 20000 µg/mL)
54 | CCC(NC=O)C(=O)O (stereo not given) | 256 (≈ 33600 µg/mL)
55 | COc1c(O)ccc(C=O)c1C | 42.1 (≈ 7000 µg/mL)
56 | CCCCCN(N=Cc1ccc([N+](=O)[O-])o1)C(N)=O | 1.27 (≈ 340 µg/mL)
57 | CCCOC(=O)c1cccnc1 | 57.5 (≈ 9500 µg/mL)
58 | O=C(O)CCC(=O)c1ccc2ccccc2c1 | 0.14 (≈ 32 µg/mL)
59 | CCc1nc2c(c(=O)n(C)c(=O)n2C)n1C | 27 (≈ 6000 µg/mL)
60 | O=C(O)c1ccc([N+](=O)[O-])c2cccnc12 | 0.683 (≈ 149 µg/mL)
61 | NS(=O)(=O)c1ccc(S(N)(=O)=O)cc1 | 2.96 (≈ 700 µg/mL)
62 | CCCC[C@H](O)C(C)C | 15.4 (≈ 2010 µg/mL)
63 | CCSC(=S)N[C@@H](CC(=O)O)C(=O)O | 41.1 (≈ 9750 µg/mL)
64 | CC(=O)CC(CC(=O)O)c1ccccc1 (stereo not given) | 35.8 (≈ 7380 µg/mL)
65 | CCCCN(C(N)=O)c1ccccc1 | 50.5 (≈ 9700 µg/mL)
66 | CCCC[C@H](NC(C)=O)C(=O)O (racemic) | 307 (≈ 53100 µg/mL)
67 | O=C(O)c1ccc(NC(=O)c2cccnc2)cc1 | 0.826 (≈ 200 µg/mL)
68 | C=CC1=C(C)C(=Cc2[nH]c(Cc3[nH]c(C=C4NC(=O)C(C)=C4C=C)c(C)c3CCC(=O)O)c(CCC(=O)O)c2C)NC1=O | 0.0154 (≈ 9 µg/mL)
69 | CCCCCCCCCNC(=O)c1cccnc1 | 0.725 (≈ 180 µg/mL)
70 | CCC(C)[C@@H](NC(C)=O)C(=O)O (mixture of isomers) | 177
71 | O=C(NC(=O)c1cccnc1)Nc1ccccc1 | 0.414 (≈ 100 µg/mL)
72 | CCc1c[nH]c(=O)[nH]c1=O | 11.4 (≈ 1600 µg/mL)
73 | CCOP(=O)(OCC)OCC(C)C | 66.6 (≈ 14000 µg/mL)
74 | CC(C)CC(=O)Oc1ccc([N+](=O)[O-])cc1 | 0.0403 (≈ 9 µg/mL)
75 | O=I(=O)c1ccccc1 | 14.4 (≈ 3400 µg/mL)

Same assay, conditions: 26 °C

Row | Structure (SMILES) | solubility [mM]
76 | N#CCCNC(Cc1ccccc1)C(=O)O (racemic) | 32.1 (≈ 7000 µg/mL)
77 | CSC1=CC(=O)c2ccccc2C1=O | 0.0343 (≈ 7 µg/mL)
78 | CC(C(=O)O)C(C)(C)CCC(=O)O (stereo not given) | 29.8 (≈ 5600 µg/mL)

Same assay, conditions: 27 °C

Row | Structure (SMILES) | solubility [mM]
79 | CCC(C)(C)NC(N)=O | 96.8 (≈ 12600 µg/mL)

Same assay, conditions: 30 °C

Row | Structure (SMILES) | solubility [mM]
80 | CCn1c(=O)c2c(ncn2C)n(C)c1=O | 191 (≈ 39800 µg/mL)
81 | O=C(O)CCCCCc1ccccc1 | 2.5 (≈ 480 µg/mL)
82 | CCCCCCCCOC(=O)c1ccc(O)cc1 | 0.0599 (≈ 15 µg/mL)
83 | CCc1cccc(C)n1 | 150 (≈ 18200 µg/mL)
84 | CCCCOC(=O)c1ccc(O)c(I)c1 | 0.125 (≈ 40 µg/mL)
85 | CCOC(=O)c1ccc(O)c(Cl)c1 | 0.598 (≈ 120 µg/mL)
